These results are taken from patent US8975371B2, “Melanoma antigen peptide and uses thereof” (INSERM (Institut National de la Sante et de la Recherche …, priority 2008, dated 2015).

Format in all cases: cell-based, human
The test system of test [1] is M170.51 CTL clone / peptide-pulsed T2 cells. Put plainly: Cytotoxicity of M170.51 CTL clone against peptide-pulsed T2 cells (4 h 51Cr release). The conditions noted are these: peptide loaded on T2 cells. As for the experimental part: (§1) (A) Structure of meloe cDNA. Black boxes correspond to ORFs tested for recognition by the CTL clone. (B) M170.48 and M170.51 TNF responses to COS-7 cells (E/T ratio 1/3) transfected with indicated plasmids. T cell clone was added 2 days after the transfection and the CTL clone reactivity was assessed by a TNF release assay. (C) Amino acid sequences of the ORF 1230-1370 and the ORF 285-404 of meloe isolated from M134 cDNA library. (D and E) Cytotoxicity of M170.48 CTL clone (D) and M170.51 CTL clone(E) against peptide-pulsed T2 cells. Target cells were chromium labeled for 60 min and incubated for 30 min with a range of the indicated peptides. T cell clones were added at an E/T ratio of 10/1 and chromium release was then measured after a 4 h incubation period.
(§2) Cytotoxic activity of T cells was measured in a standard 4-h assay against ^51Cr-labeled cells (peptide-loaded T2 cells or tumor cell lines) (23). […] After staining, cells were resuspended in PBS and analyzed on a LSR flow cytometer using Cell Quest software. […]

The test system of test [2] is M170.48 CTL clone / peptide-pulsed T2 cells. Kind of test: Cytotoxicity of M170.48 CTL clone against peptide-pulsed T2 cells (4 h 51Cr release). Particulars: peptide loaded on T2 cells. The procedure: as §1, §2
In test [3] the test system is MELOE-1 specific T cell clones / peptide-loaded T2 cells. Put plainly: Relative avidity of MELOE-1 specific T cell clones, 4-h 51Cr assay against peptide-loaded T2 cells. The procedure:
Cytotoxicity of MELOE-1 specific CTL clones against peptide-pulsed T2 cells. Target cells were chromium labeled for 60 min and incubated for 30 min with a range of the MELOE-136-44 peptide. T cell clones derived from healthy donors (A), melanoma patients PBMC (B) and TIL (C) were added at an E/T ratio of 10/1 and chromium release was then measured after a 4 h incubation period. (D) Mean EC50 of the MELOE-1 specific T cell clones in response to the MELOE-136-44 peptide, according to their origin. EC50 were compared using statistical analysis done with InStat 2.01. Data were analyzed using Kruskal-Wallis comparison test. *p=0.019, considered significant.
The relative avidity of […] specific T cell clones and their anti-tumor reactivity was measured respectively in a standard 4-h assay against ^51Cr-labeled peptide-loaded T2 cells and towards HLA-A2 melanoma cell lines. Briefly, target cells (peptide pulsed-T2 or melanoma cells) were incubated with 100 μCi Na2^51CrO4 (Oris Industrie, Gif-sur-Yvette, France) at 37° C. for 1 h. For peptide recognition assays, T2 cells were preincubated with a range of […] peptide concentrations for 1 h at 37° C. […] Data were analyzed using Kruskal-Wallis comparison test, followed by Dunn'post test. […]

Like-named read-outs stand apart in the source and are kept apart here.

RCPPKPPLA: in test [1], the “recognition by M170.51 T cell clone” value is “recognized”. The EC50 in test [1] (M170.51 CTL clone, E/T ratio 10/1, 4 h chromium release, read-out: half maximal lysis (converted)) was 50 nM.

With TLNDECWPA, the “recognition by M170.48 T cell clone” value in test [2] is on record as “recognized”. For the same sequence, the EC50 in test [2] (M170.48 CTL clone, E/T ratio 10/1, 4 h chromium release, read-out: half maximal lysis) is 10 nM; in test [3] (healthy donor clonotype HD1.21, read-out: EC50 of clonotype HD1.21), 10 nM; in test [3] (healthy donor clonotype HD3.38, read-out: EC50 of clonotype HD3.38), 1 nM.
